From patent US20240300939A1 (Scorpion Therapeutics, Inc., priority 2021, published 2024)

What was measured:
[1] = system: pAKT (S473) in T47D cells (PI3Kα H1047R mutation); experiment: HTRF pAKT (S473) in T47D cells; assay type: cell-based
[2] = biological target: T1, PI3Kα H1047R (Homo sapiens, UniProt P42336, H1047R); experiment: Surface Plasmon Resonance (SPR) binding, wortmannin-blocked protein; conditions: Biacore 8K, protein pre-incubated with 1 μM wortmannin, 25° C.
T1 construct: The protein contained a full-length p110-a subunit harboring the H1047R mutation with an N-terminal AviTag
T1 sequence (P42336 whole entry H1047R): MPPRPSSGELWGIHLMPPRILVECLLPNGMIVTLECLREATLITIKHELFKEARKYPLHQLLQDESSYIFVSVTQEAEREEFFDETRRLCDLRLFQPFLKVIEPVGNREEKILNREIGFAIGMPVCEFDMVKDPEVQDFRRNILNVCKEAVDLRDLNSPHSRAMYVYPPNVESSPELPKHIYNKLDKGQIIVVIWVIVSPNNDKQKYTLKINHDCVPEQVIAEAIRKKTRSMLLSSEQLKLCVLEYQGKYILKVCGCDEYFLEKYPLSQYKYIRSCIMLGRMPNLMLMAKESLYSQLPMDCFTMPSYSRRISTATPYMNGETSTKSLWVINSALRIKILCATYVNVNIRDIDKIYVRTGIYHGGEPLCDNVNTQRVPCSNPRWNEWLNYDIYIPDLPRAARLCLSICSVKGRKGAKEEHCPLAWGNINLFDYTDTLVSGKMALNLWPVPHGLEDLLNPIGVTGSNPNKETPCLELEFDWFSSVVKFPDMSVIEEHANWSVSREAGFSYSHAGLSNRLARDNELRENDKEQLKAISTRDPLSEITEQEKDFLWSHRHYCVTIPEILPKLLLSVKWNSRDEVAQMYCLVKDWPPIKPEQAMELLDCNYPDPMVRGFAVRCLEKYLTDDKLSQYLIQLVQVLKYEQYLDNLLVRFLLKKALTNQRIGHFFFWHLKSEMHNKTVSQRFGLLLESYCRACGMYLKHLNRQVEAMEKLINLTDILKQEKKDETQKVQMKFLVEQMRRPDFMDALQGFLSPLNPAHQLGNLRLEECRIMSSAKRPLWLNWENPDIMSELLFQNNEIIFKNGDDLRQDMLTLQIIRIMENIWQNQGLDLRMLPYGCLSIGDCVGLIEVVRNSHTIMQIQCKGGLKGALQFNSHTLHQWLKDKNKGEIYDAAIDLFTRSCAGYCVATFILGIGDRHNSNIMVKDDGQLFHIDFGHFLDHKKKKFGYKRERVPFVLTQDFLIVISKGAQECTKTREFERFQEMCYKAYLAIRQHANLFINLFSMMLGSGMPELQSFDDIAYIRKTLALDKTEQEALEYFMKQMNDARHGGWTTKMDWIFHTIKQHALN
T1 sequence (P27986 322-694 partner limits assumed): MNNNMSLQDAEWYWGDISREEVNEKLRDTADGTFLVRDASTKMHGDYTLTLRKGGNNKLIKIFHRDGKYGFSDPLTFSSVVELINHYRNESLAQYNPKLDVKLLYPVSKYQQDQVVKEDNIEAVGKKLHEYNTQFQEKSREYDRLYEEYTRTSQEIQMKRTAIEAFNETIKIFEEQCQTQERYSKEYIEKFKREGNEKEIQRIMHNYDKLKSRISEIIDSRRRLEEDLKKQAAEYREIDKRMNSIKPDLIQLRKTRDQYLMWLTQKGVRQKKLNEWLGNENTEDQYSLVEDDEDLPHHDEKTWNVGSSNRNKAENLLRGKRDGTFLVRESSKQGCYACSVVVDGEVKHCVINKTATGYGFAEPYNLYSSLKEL
Method: SPR experiments were performed on a Biacore 8K instrument. A biotinylated recombinant PI3Kα H1047R protein was used in this study. The protein contained a full-length p110-a subunit harboring the H1047R mutation with an N-terminal AviTag, complexed with a truncated p85-a subunit (amino acid residues 322-694). The protein was first incubated with 1 μM wortmannin for 30 min at RT to covalently block the ATP binding site, then immobilized onto a streptavidin sensor chip by flowing the protein through the sensor chip at typically 20 μg/mL concentration and 2 μL/min flow rate for 1200 seconds. Compound binding affinities were measured in the multi-cycle kinetics mode, at 90 μL/min flow rate with 90 seconds association time and 240 seconds dissociation time. The running buffer contained 50 mM Tris, pH 7.5, 150 mM NaCl, 0.01% Brij35, 1 mM DTT, 1 mM MgCl2, 0.05% Tween-20 and 2% DMSO. Temperature was maintained at 25° C. during experiments.

Row | Compound | IC50 ([1]; timepoint 1 hour) [nM] | also measured
1 | Cc1c(C(NC(=O)Nc2ccc(N)nc2)C(F)(F)F)oc2c(F)cc(F)cc12 (centres unmarked) [Compound 181] | > 5000 | –
2 | Cc1c([C@@H](NC(=O)Nc2cnc(NCC(C)(C)O)nc2)C(F)(F)F)oc2c(F)cc(F)cc12 [Compound 183] | – | IC50 ([1]; Homo sapiens, T47D, 1 h): < 1000 nM
3 | Cc1c([C@H](NC(=O)Nc2cnc(N3C[C@H](O)[C@H]3C)nc2)C(F)(F)F)oc2c(F)cc(F)cc12 [Compound 173] | – | IC50 ([1]; Homo sapiens, T47D, 1 h): > 5000 nM
4 | Cc1c([C@@H](NC(=O)Nc2cnc(N3C[C@H](O)[C@H]3C)nc2)C(F)(F)F)oc2c(F)cc(F)cc12 [Compound 174] | – | IC50 ([1]; Homo sapiens, T47D, 1 h): < 1000 nM
5 | Cc1c([C@H](NC(=O)Nc2cnc(NCC(C)(C)O)nc2)C(F)(F)F)oc2c(F)cc(F)cc12 [Compound 184] | – | IC50 ([1]; Homo sapiens, T47D, 1 h): > 5000 nM
6 | Cc1c([C@@H](NC(=O)Nc2cccc(N3CCC3=O)c2)C(C)C)oc2ccc(F)cc12 [Compound 104] | – | IC50 ([1]; Homo sapiens, T47D, 1 h): < 1000 nM
7 | Cc1c([C@@H](NC(=O)Nc2cnc(NC[C@@H](C)O)nc2)C(C)C)oc2ccc(F)cc12 [Compound 143] | < 1000 | –
8 | Cc1c(C(NC(=O)Nc2ccc(N)nc2)C(F)(F)F)oc2c(F)cc(F)cc12 (centres unmarked) [Compound 182] | < 1000 | –
9 | Cc1c([C@@H](NC(=O)N[C@H]2CC[C@H](C(N)=O)CC2)C(C)C)oc2ccc(F)cc12 (relative stereo) [Compound 42, (1R,4r)-4-(3-((R*)-1-(5-fluoro-3-methylbenzofuran-2-yl)-2-methylpropyl)ureido)cyclohexane-1-carboxamide] | – | Kd [2]: ≥ 500 nM

Second part, led by results:

Row | IC50 ([1]; timepoint 1 hour) [nM] | Compound | also measured
10 | < 1000 | Cc1c([C@@H](NC(=O)Nc2cnc(N3CC[C@H](O)C3)nc2)C(F)(F)F)oc2c(F)cc(F)cc12 [Compound 209] | –
11 | < 1000 | Cc1c([C@@H](NC(=O)Nc2cnc(N3CC[C@@H](O)C3)nc2)C(F)(F)F)oc2c(F)cc(F)cc12 [Compound 208] | –
12 | > 5000 | Cc1c([C@H](NC(=O)Nc2cnc(N3CC[C@H](O)C3)nc2)C(F)(F)F)oc2c(F)cc(F)cc12 [Compound 210] | –
13 | < 1000 | Cc1c([C@@H](NC(=O)Nc2cnc(N3CC(C(C)(C)O)C3)nc2)C(F)(F)F)oc2c(F)cc(F)cc12 [Compound 205] | –
14 | > 5000 | Cc1c([C@H](NC(=O)Nc2cnc(N3CC(C(C)(C)O)C3)nc2)C(F)(F)F)oc2c(F)cc(F)cc12 [Compound 206] | –
15 | > 5000 | Cc1c([C@H](NC(=O)Nc2cnc(N3CC[C@@H](O)C3)nc2)C(F)(F)F)oc2c(F)cc(F)cc12 [Compound 207] | –
16 | > 5000 | Cc1c([C@H](NC(=O)Nc2cnc(N3CC(C(N)=O)C3)nc2)C(F)(F)F)oc2c(F)cc(F)cc12 [Compound 212] | –
17 | < 1000 | Cc1c([C@@H](NC(=O)Nc2cnc(N3CC(C(N)=O)C3)nc2)C(F)(F)F)oc2c(F)cc(F)cc12 [Compound 211] | –
